# Measured values from patent US20230158066A1, “ENCAPSULATED CARBONYL IRON SALT COMPOSITIONS AND PROCESS THEREOF” (priority 2020, published 2023).
# Assay: Particle density (bulk density), USP <616> method 1
# Assay type: physicochemical
# Conditions: untapped powder, W/V0
# Text: Particle density or Bulk density is the density of the solids (determined by the composition), which determines the particle density, together with the amount of occluded air. It's the ratio of mass to volume (including the inter-particulate void volume) of an untapped powder sample. It depends on both the density of powder particle and arrangement of the particles. The bulk density influenced by preparation method, treatment and storage of the samples.
# The method used as per the reference of USP general chapter <616> method 1. • 1. Pass a quantity of material sufficient to complete the test through sieve greater than equal to 1 mm, if necessary to break up agglomerates that may formed. • 2. Fill the test sample approx. 150 g with 0.1% accuracy (W) in dry gradual 250 mL cylinder (readable to 2 mL) carefully. • 3. Read the unsettled apparent volume (V0) to the nearest graduated unit. • 4. Calculate the particle density by following formula;
row,Molecule,Particle density [g/mL]
1,O=C([O-])/C=C/C(=O)[O-].[Fe+2] [Ferrous fumarate],2.14
2,Ferrous Ascorbate,0.75
3,Ferrous sulfate,1.26
